Structures are written as SMILES.

The target in one experiment is T1, Aurora B (Homo sapiens, UniProt Q96GD4).
T1 construct: Active Aurora B enzyme (recombinant residues 1-344)
The experiment in a line: Aurora B enzyme assay (time-resolved fluorescence, histone H3 peptide). Format: biochemical. To be noted: 1 mM ATP, 1 hour. The procedure:
To determine Aurora B activity of representative compounds of the invention, Active Aurora B enzyme (recombinant residues 1-344) and INCENP (recombinant GST fusion protein (Upstate)) were incubated in wells of a 384 well plate with biotinylted histone H3 peptide residues 1-21 (Upstate), 1 mM ATP, and various concentrations of inhibitors in a HEPES buffer, pH 7.4 containing MgCl2, sodium othrovanadate, and Triton X-100. After 1 hour, the reaction was stopped with EDTA and anti-phospho-histone H3 Europium Cryptate (Cis-Bio) and SA-APC (Phycolink, Prozyme) were added to detect the phosphopeptide. The amount of phosphorylation was determined by the time-resolved fluorescence ratio of signals at 665 nm and 615 nm. The IC50's were calculated by an exponential fit of the inhibition values with the inhibitor concentrations using Assay Explorer software.

Another experiment has as its target T2, Aurora A (Homo sapiens, UniProt O14965).
T2 sequence (O14965 1-403): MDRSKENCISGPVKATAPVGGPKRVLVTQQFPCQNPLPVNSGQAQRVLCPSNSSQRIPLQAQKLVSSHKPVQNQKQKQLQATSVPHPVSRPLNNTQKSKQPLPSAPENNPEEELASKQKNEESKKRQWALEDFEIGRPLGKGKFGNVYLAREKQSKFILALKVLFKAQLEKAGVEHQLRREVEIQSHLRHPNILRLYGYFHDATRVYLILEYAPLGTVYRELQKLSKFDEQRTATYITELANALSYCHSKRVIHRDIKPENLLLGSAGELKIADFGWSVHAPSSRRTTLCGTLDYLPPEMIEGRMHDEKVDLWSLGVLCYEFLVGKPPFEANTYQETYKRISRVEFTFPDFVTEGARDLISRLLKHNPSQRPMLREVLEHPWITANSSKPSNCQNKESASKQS
The experiment in a line: Aurora A enzyme assay (time-resolved fluorescence, STK substrate-2). Format: biochemical. To be noted: 1 mM ATP, 1 hour. The procedure:
To determine Aurora A and C activity of representative compounds of the invention, Active Aurora A or C enzyme was incubated in wells of a 384 well plate with biotinylated STK substrate-2 (Upstate), 1 mM ATP, and various concentrations of inhibitors in a Hepes buffer, pH 7.4 containing MgCl2, sodium othrovanadate, and Triton X-100. After 1 hour, the reaction was stopped with EDTA and anti-phospho-STK antibody Europium Cryptate (Upstate) and SA-XL665 (Upstate) were added to detect the phosphopeptide. The amount of phosphorylation was determined by the time-resolved fluorescence ratio of signals at 665 nm and 615 nm. The IC50s were calculated by an exponential fit of the inhibition values with the inhibitor concentrations using Assay Explorer software.

The target in experiment [1] is T3, KDR (Homo sapiens, UniProt P35968). Put plainly: KDR cell assay. It counts as cell-based.
Target sequence in this assay (P35968 20-1356, species assumed): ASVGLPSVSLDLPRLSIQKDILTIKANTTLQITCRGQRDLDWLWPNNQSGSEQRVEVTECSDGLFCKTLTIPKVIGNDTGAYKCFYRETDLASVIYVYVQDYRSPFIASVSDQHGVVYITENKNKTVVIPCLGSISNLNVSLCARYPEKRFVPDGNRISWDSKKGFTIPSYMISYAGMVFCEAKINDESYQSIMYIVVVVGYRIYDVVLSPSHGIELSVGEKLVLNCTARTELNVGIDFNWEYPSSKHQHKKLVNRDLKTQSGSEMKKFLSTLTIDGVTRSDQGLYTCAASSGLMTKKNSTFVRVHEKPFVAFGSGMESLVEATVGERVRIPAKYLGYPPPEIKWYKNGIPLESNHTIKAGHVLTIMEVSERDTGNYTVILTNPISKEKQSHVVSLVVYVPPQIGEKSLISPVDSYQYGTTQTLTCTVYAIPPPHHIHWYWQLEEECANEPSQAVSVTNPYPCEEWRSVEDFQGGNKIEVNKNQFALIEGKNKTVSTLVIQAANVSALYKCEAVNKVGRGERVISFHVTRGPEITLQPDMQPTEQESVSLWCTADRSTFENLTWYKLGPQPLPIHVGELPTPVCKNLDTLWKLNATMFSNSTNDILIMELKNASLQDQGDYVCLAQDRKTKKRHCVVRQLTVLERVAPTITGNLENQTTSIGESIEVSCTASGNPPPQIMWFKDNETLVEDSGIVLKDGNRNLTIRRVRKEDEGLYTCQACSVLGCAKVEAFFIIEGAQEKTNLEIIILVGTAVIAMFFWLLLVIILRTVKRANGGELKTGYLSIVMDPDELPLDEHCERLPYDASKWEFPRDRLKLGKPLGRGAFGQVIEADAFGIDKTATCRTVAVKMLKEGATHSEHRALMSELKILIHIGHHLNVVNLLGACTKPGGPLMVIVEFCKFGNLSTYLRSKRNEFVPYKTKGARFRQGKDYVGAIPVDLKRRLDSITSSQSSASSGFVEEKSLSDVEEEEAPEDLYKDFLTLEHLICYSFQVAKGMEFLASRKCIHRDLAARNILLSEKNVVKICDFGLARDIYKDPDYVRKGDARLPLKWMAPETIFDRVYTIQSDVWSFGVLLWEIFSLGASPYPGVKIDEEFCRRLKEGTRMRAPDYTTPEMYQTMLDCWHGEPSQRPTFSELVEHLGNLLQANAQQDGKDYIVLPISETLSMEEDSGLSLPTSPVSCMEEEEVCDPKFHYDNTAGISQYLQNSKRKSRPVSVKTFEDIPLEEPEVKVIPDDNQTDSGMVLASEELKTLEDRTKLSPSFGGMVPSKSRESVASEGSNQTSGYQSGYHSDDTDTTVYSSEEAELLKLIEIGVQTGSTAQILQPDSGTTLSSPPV
The test system of experiment [2] is H1299 cells (Human Non-Small Cell Lung Carcinoma). The experiment in a line: Induction of polyploidy in H1299 cells, high content analysis. Format: cell-based. To be noted: NCI-H1299 cells, 48 hours, polyploid = nuclear area >750μ2, read-out: Polyploid HCA IC50. The procedure:
To determine the induction of polyploidy in H1299 cells (Human Non-Small Cell Lung Carcinoma), NCI-H1299 were seeded (4K/well) into 96-well culture plates (tissue culture grade, black, flat-clear bottom) and incubated overnight to produce cell-to-plate adherance Inhibitors at varying concentrations were added into duplicate wells containing cells and culture media (RPMI 1640, 10% fetal calf serum) and incubated at 37 C for 48 hours. The plates were then washed with PBS and the adherent cells fixed by incubating with 3% formalin for 1 hour. After washing four times with PBS, the cells were then stained with Hoechst and subjected to fluorescent (3601/460e) microscopic high content analysis to determine the effect of inhibitors on nuclear size. Polyploid cells (>4N) were defined as those having nuclear area >750μ2. […]

The target of experiment [3] is T3, KDR. The experiment in a line: KDR HTRF in vitro kinase assay. To be noted: 1 mM ATP, 60 minutes. Further details: purified enzyme (His6-KDR 789-1354, MW 63 kD). It counts as biochemical. The procedure:
To determine the activity of the various kinases, a homogenous time-resolved fluorescence (HTRF) in vitro kinase assay was used. (Mathis, G., HTRF(R) Technology. J Biomol Screen, 1999. 4(6): p. 309-314; Alfred J. Kolb, Paul V. Kaplita, David J. Hayes, Young-Whan Park, Christine Pernell, John S. Major and Gerard Mathis, Drug Discovery Today, 1998, 3, 333-342.)
For example for KDR, 7 ng/well of purified enzyme (His6-KDR 789-1354, MW 63 kD) was mixed with 0.5 μM N-biotinylated substrate (Biotin-Ahx-AEEEYFFLA-amide (SEQ. ID. 1)), various concentrations of inhibitor in reaction buffer (50 mM HEPES, pH 7.1, mM MgCl2, 2 mM MnCl2, 0.1% BSA and 1 mM DTT, […] final volume), ATP (1 mM final conc.) in a black 384-well plate. After 60 minutes incubation at room temperature, the reaction was quenched by addition of a buffered EDTA solution (final approximate concentrations: 30 mM EDTA, 0.1% BSA, 0.1% Triton X-100 and 0.24M KF) and a solution of revelation agents (to give 0.084 ng/well streptavidin-XL-665 (Cis-Bio) and 6.5 ng/well antiphsophotyrosine mAb PT66-K Europium kryptate) was added to the reaction mixture. The quenched reaction was allowed to stand at room temperature for 3 hours and was then read in a time-resolved fluorescence detector (InVision, Perkin-Elmer) at 620 nm and 665 nm sequentially with excitation. The ratio between the signal of 620 nm and 665 nm was used in the calculation of the IC50.
Target sequence in this assay (P35968 789-1354): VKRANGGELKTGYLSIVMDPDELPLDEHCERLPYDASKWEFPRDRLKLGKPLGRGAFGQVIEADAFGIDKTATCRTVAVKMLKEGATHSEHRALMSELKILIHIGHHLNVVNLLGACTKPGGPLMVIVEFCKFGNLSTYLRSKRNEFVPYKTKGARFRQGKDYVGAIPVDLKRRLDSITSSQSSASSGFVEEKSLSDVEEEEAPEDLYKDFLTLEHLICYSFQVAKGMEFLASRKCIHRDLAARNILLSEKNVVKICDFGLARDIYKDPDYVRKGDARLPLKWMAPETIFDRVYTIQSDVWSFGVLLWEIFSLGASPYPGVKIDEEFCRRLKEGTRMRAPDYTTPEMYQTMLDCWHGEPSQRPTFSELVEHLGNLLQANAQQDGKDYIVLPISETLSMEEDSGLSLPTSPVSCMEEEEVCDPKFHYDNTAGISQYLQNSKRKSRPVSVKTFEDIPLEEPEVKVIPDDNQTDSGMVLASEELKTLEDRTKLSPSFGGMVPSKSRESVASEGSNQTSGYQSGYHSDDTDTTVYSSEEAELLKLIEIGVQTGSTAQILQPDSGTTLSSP
For orientation: TR-FRET usually uses a lanthanide donor and a delayed reading to cut background.

T1 sequence (Q96GD4 whole entry, the tested form may be a part): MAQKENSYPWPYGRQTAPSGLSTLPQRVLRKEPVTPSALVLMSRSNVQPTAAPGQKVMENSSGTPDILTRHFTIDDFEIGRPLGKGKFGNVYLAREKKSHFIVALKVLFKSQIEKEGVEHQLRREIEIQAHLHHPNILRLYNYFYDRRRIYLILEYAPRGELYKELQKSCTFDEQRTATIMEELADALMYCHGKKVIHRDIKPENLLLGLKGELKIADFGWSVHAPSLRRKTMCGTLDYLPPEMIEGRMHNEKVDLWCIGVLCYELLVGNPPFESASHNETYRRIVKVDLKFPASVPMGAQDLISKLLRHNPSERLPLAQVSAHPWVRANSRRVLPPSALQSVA
T1 sequence (Q9NQS7 826-918 partner limits assumed): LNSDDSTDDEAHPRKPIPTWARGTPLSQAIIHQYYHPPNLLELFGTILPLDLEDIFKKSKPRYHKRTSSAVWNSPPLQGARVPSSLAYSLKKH

By IC50 is commonly meant the concentration that inhibits the measured activity by half. In the case of `O=C(Nc1ccc(-c2ccc3c(-c4cn[nH]c4)n[nH]c3c2)cc1)Nc1cccc(F)c1` [Example 9, N-(3-fluorophenyl)-N′-{4-[3-(1H-pyrazol-4-yl)-1H-indazol-6-yl]phenyl}urea], the IC50 is 32.7 nM against Aurora B; 221 nM against Aurora A; 300 nM against KDR [1]; 14 nM in experiment [2]; 76.3 nM against KDR [3].

As for `Cn1cc(-c2n[nH]c3cc(-c4ccc(NC(=O)Nc5cccc(F)c5)cc4)ccc23)cn1` [Example 1, N-(3-fluorophenyl)-N′-{4-[3-(1-methyl-1H-pyrazol-4-yl)-1H-indazol-6-yl]phenyl}urea], the IC50 on Aurora B was 19.2 nM; on Aurora A, 371 nM; against KDR [1] it was 87.1 nM; in experiment [2] it was 1 nM; at KDR [3], 54.9 nM.
